“And” between values parts separate entries of the source, which are not always exact repeats. Identical values can stand only once. Marks after values point to notes of the source that are not given here.
Key:
[1] = tested on: dogs with newly diagnosed idiopathic epilepsy; test: monotherapy in dogs with newly diagnosed idiopathic epilepsy (AWD 131-138 pilot study; retrospective phenobarbital, primidone); conditions: for duration of the ictus before treatment, median / duration of the ictus before treatment, time range / duration of the ictus during treatment, median / duration of the ictus during treatment, time range: grand mal seizures; for duration of the ictus before treatment, median / duration of the ictus before treatment, time range / Seizure frequency before treatment, all dogs / Seizure frequency before treatment, without nonresponders: baseline before monotherapy; for % reduction of seizures in responders: mean ± SEM; for Seizure frequency before treatment, all dogs / Seizure frequency before treatment, without nonresponders / Seizure frequency during treatment, all dogs / Seizure frequency during treatment, without nonresponders: median group value; for Seizure frequency during treatment, all dogs / Seizure frequency during treatment, without nonresponders: asterisk = P<0.05 vs before; for shortening of the postictal phase, mean: in the dogs with shortening; for dogs with unchanged or increased seizure severity: owners record
[2] = cited from earlier work
[3] = serum concentrations of phenobarbital and bromide
[4] = tested on: dogs with chronic idiopathic epilepsy; test: add-on therapy in dogs with chronic idiopathic epilepsy not responding to phenobarbital or primidone; type: in vivo, dog
[5] = 44 newly diagnosed dogs, phenobarbital 4 to 13 mg/kg p.o. daily
[6] = eight chronic epilepsy dogs (potassium bromide add-on group), phenobarbital 6 to 17 mg/kg p.o. daily
[7] = eleven chronic epilepsy dogs (later AWD add-on), phenobarbital 6 to 23 mg/kg p.o. daily
[8] = add-on to phenobarbital or primidone
[9] = grand mal seizures, add-on to phenobarbital or primidone
[10] = grand mal seizures, on phenobarbital or primidone before add-on
[11] = median, on phenobarbital/primidone before add-on
[12] = potassium bromide 40-60 mg/kg p.o. daily, add-on

CCC1(c2ccccc2)C(=O)NCNC1=O [Primidone, primidone]
comparison of antiepileptic efficacy between monotherapy treatment groups ([1]; ANOVA): did not indicate any significant differences | duration of the ictus before treatment, median [1]: 1.5 min | duration of the ictus before treatment, time range [1]: 0.5 to 10 min | duration of the ictus during treatment, median ([1]; monotherapy): 1.0 min | duration of the ictus during treatment, time range ([1]; monotherapy): 0.5 to 10 min | % reduction of seizures in responders ([1]; monotherapy): 75.1 ± 5.1% | Seizure frequency before treatment, all dogs [1]: 1.75 seizures/month | Seizure frequency before treatment, without nonresponders [1]: 2.0 seizures/month | Seizure frequency during treatment, all dogs ([1]; monotherapy): 0.39 seizures/month | Seizure frequency during treatment, without nonresponders ([1]; monotherapy): 0.29* seizures/month | dogs in which a seizure reduction was observed ([1]; monotherapy): 19 of 26 | dogs that died or were euthanized in status epilepticus ([1]; monotherapy): 10 | dogs with focal seizures instead of grand mal seizures during treatment ([1]; monotherapy): 2 | dogs with reduced seizure number per cluster ([1]; monotherapy): 5 out of ten | number of dogs with decreased duration of the ictus ([1]; monotherapy): 2 | number of dogs with shortened postictal phase ([1]; monotherapy): 5 | owners reporting subjectively a decrease of seizure severity ([1]; monotherapy): ten of 22 | postictal phase during treatment, mean ([1]; monotherapy): 4.5 h | reduction of seizure number per cluster, mean ([1]; monotherapy): 37.5% | decrease of the duration of the ictus ([1]; monotherapy, in the dogs with a decrease): 30% | shortening of the postictal phase, mean ([1]; monotherapy): 40% | dogs with unchanged or increased seizure severity ([1]; monotherapy): 2

CCC1(c2ccccc2)C(=O)NC(=O)NC1=O [Phenobarbital, phenobarbital]
phenobarbital serum concentration, reference values ([2]; established by FARNBACH 1984): 45 µg/mL | serum concentration of phenobarbital, mean [3, 5]: 18.4 µg/mL | serum concentration of phenobarbital, median [3, 5]: 17.2 µg/mL | serum concentration, mean [3, 6]: 27.2 µg/mL | serum concentration, median [3, 6]: 24.6 µg/mL | serum concentration of phenobarbital, mean [3, 7]: 32.0 µg/mL | serum concentration of phenobarbital, median [3, 7]: 26.5 µg/mL | duration of the ictus before treatment, median [1]: 4.0 min | duration of the ictus before treatment, time range [1]: 0.5 to 10 min | duration of the ictus during treatment, median ([1]; monotherapy): 5.0 min | duration of the ictus during treatment, time range ([1]; monotherapy): 0.5 to 10 min | % reduction of seizures in responders ([1]; monotherapy): 72.4 ± 4.6% | Seizure frequency before treatment, all dogs [1]: 1.6 seizures/month | Seizure frequency before treatment, without nonresponders [1]: 1.68 seizures/month | Seizure frequency during treatment, all dogs ([1]; monotherapy): 0.59* seizures/month | Seizure frequency during treatment, without nonresponders ([1]; monotherapy): 0.42* seizures/month | dogs that died or were euthanized in status epilepticus ([1]; monotherapy): 10 | dogs with focal seizures instead of grand mal seizures during treatment ([1]; monotherapy): 6 | number of dogs with decreased duration of the ictus ([1]; monotherapy): 4 | number of dogs with shortened postictal phase ([1]; monotherapy): 8 | owners reporting subjectively a decrease of seizure severity ([1]; monotherapy): 24 | postictal phase during treatment, mean ([1]; monotherapy): 3 h | shortening of the postictal phase, mean ([1]; monotherapy): 43% | dogs with unchanged or increased seizure severity ([1]; monotherapy): 11

[Br-].[K+] [Potassium bromide, potassium bromide, reference compound]
bromide concentration, therapeutic range ([2]; established by PODELL and FENNER 1993): 1.0 to 2.0 mg/mL | comparison of antiepileptic efficacy between the two add on treatment schedules ([4]; Fisher's exact test): did not indicate any significant difference | dogs in which clusters did not occur anymore ([4]; add-on): 6 | dogs with worsening of seizure severity reported by owner ([4]; add-on): one | number of dogs with decreased duration of the ictus ([4]; add-on): 3 | number of dogs with shortened postictal phase ([4]; add-on): two | postictal phase during treatment, mean ([4]; add-on): 5.5 h | dogs in which a seizure reduction was observed [4, 8]: 7 of 12 | dogs that died or were euthanized in status epilepticus [4, 8]: 6 | Number of seizure-free dogs ([4]; add-on to phenobarbital/primidone): 0/12 | shortening of the postictal phase ([4]; add-on, in the dogs with shortening): 50% and 75% | duration of the ictus during treatment, median [4, 9]: 2.0 min | duration of the ictus during treatment, time range [4, 9]: 1 to 10 min | duration of the ictus before treatment, median [4, 10]: 3.0 min | duration of the ictus before treatment, time range [4, 10]: 1 to 13 min | % reduction of seizures in responders ([4]; mean ± SEM, add-on to phenobarbital/primidone): 59.7 ± 5.9% | Seizure frequency during treatment, all dogs ([4]; median, add-on to phenobarbital/primidone): 1.9 seizures/month | Seizure frequency during treatment, without nonresponders ([4]; median, add-on to phenobarbital/primidone, asterisk = P<0.05): 0.8* seizures/month | Seizure frequency before treatment, all dogs [4, 11]: 3.0 seizures/month | Seizure frequency before treatment, without nonresponders [4, 11]: 3.0 seizures/month | Bromide concentration, mean [3, 12]: 1.0 mg/mL | Bromide concentration, median [3, 12]: 0.9 mg/mL

Source: patent US9469611B2, “Use of dihydroimidazolones for the treatment of dogs” (BOEHRINGER INGELHEIM VETMEDICA GMBH, priority 2002, dated 2016)
